# Laboratory results from patent US8729053B2, “Nuclear factor kappa B pathway inhibitor composition and use of same” (The United States of America, as represented by the …, priority 2008, dated 2014).
# Counter-ions that a name gives are not always drawn.
# Assays:
# NFκB = NFκB luciferase reporter assay in HEK293 cells; format: cell-based
# Experimental: All expression plasmids were transiently transfected into HEK293 cells in a 96-well plate (0.1 μg/well) by using Effectene transfection reagent (Qiagen, Valencia, Calif.) according to the manufacturer's manual. HEK293 cells were maintained in Dulbecco's modified Eagle medium (Sigma, St. Louis, Mo.) supplemented with 10% fetal bovine serum (Atlanta Biologicals, Lawrenceville, Ga.) and incubated at 37° C. in a 5% CO2 incubator. After 24 hrs incubation, the medium was changed to DMEM with 0.2% FBS, and the transfectants were exposed to various concentrations of compound I and TPA (10 ng/ml). Cells were lysed with passive lysis buffer and the luciferase assay was performed using the Firefly-Luciferase reporter assay system (Promega, Madison, Wis.) and MLX Luminometer (Dynex Technology, Chantilly, Va.).
# Three different luciferase reporter genes, AP-1 reporter containing four times TRE consensus originated from GCN4 and SRE reporter purchased from Stratagene (La Jolla, Calif.) respectively are as described previously (Suzukawa et al., Environ. Health Perspect., 2002, 110, 865-70). NFκB reporter is driven by five times NFκB responsive element inserted into Cis-reporter backbone (Stratagene, La Jolla, Calif.). Others include mouse COX-2 promoter region from −203 to +70 relative to the transcription site inserted into pTIS10L vector (Kim and Fischer, J. Biol. Chem., 1998, 273, 27686-94), human uPAR promoter region from −141 to +47 relative to transcription start site in pGL3 vector (Wang et al., Eur. J. Biochem., 2000, 267, 3248-54), and human VEGF promoter sequence from −2274 to +379 inserted into the pGL2 vector (Ding et al., J. Biol. Chem., 2006, 281, 9093-100).
# To evaluate whether the compound I biological activity can imitate TAM67 specificity, three different transcriptional promoter reporters were used, AP-1, NFκB, and SRE (Serum response element) in luciferase reporter assays (FIG. 1A: The transfected cells were pre-treated with varied concentrations of compound I or DMSO for 1 hour before 18 hours stimulation by TPA (10 ng/ml) or DMSO as vehicle. An asterisk (*) indicates a separate experiment with NFκB dependent luciferase only. Assays were performed with two independent experiments each in quadruplicate.). All three activities were induced by TPA but only induction of AP-I and NFκB were inhibited by TAM67. The SRE reporter was used as a specificity control and indicator of cell proliferation. TPA-induced SRE activity was not repressed by TAM67 when coexpressed with the SRE-Luc reporter in HEK293 cells. The same concentration (10 ng/ml, 16.2 nM) and incubation time (18 hrs) were used for TPA induction as previously used for the high throughput screen (HTS) (Ruocco et al., J. Biomol. Screen., 2007, 12, 133-9) along with 1 h pretreatment of compound I. The screening results had tested concentrations as high as 40 μM compound I with cell numbers showing 95.5+/−6.2% of DMSO control (ave+/− sd, n=3) by the XTT assay in HEK293T cells.
# IL-6 mRNA = test: Quantitative RT-PCR of endogenous IL-6 mRNA in HEK293 cells; format: cell-based, human; settings: concentrations as low as 2.1 μM, 1 hour pretreatment, TPA 18 hours, normalized by GAPDH
# Experimental: Total RNA was isolated from HEK293 cells after pretreatment with varying compound I and/or TPA stimulation by ToTALLY RNA kit (Ambion, Austin, Tex.), and first-strand cDNA was synthesized from 1 μg of the isolated total RNA using the SuperScript III First-Strand Synthesis System (Invitrogen, Carlsbad, Calif.) with random hexamers, oligonucleotide primers. cDNA was purified by QIAquick PCR purification kit (Qiagen, Valencia, Calif.) according to the manufacturer's manual. Real-time PCR was performed with iQ SYBR Green Supermix (Bio-Rad, Hercules, Calif.) by iQ5 Multicolor RT-PCR detection system (Bio-Rad, Hercules, Calif.). Primers for endogenous human IL-6 were designed by Primer 3 program (http://frodo.wi.mit.edu/). Human glyceraldehyde-3-phosphate dehydrogenase (hGAPDH) was used as a control. The sequences for RT-PCR are as follows:
# Inhibition of NFκB transactivation would be expected to result in suppressed expression of genes whose transcription depends on NFκB. Quantitative RT-PCR was used to measure endogenous levels of IL-6 mRNA, transcribed from a gene whose transcription depends on NFκB but not AP-1. […] Plasmids expressing luciferase reporters were driven by promoters for COX-2, uPAR (urokinase-type plasminogen activator receptor), or VEGF. […]
# [1] = system: MCF-7, T47D, and MDA-MB-231 breast cancer cells; test: XTT assay in breast cancer cells; format: cell-based; settings: 10 μM
# Experimental: In order to evaluate the potential therapeutic activity of the compound, tests for the biological activity of compound I were performed. The compound is non-toxic to MCF-7, T47D, and MDA-MB-231 breast cancer cells as estimated by XTT assay at 10 μM. To determine the effects of compound I on invasion by breast cancer cell lines, a matrigel invasion assay was used. The levels of phosphorylated IκBα were confirmed in TPA treated ER-positive (MCF-7 and T47D) and ER-negative (MDA-MB-231) breast cancer cell lines and compared the levels to those after pretreatment with compound I. Although induced levels of phosphorylated IκBα varied with the cell line, IκBα phosphorylation was eliminated by compound I treatment in all three breast cancer cell lines. Compound I also produced no effect on the estrogen receptor activity in the ER-positive breast cancer cells using ERE promoter luciferase reporter assay. Invasion capacity of breast cancer cells was increased by TPA stimulation compared to DMSO treated vehicle control. […] Following anchorage-independent colony induction in TPA-treated cells without or with compound I, colonies were lysed and measured with CyQuant GR Dye to detect DNA by fluorescence plate reader as a measure of colony count. Total transformed colony numbers were calculated from RFU and cell dose curve of JB6 cells. […]
structure (smiles),measurement,setting,value
"Cc1cc(N)ccc1N=Nc1ccc(S(=O)(=O)CCOS(=O)(=O)O)cc1 [compound I, 2-(4-((4-amino-2-methylphenyl)diazenyl)phenylsulfonyl)ethyl hydrogen sulfate]",Inhibition of TPA-induced NFκB luciferase activity,"NFκB; HEK293, TPA 10 ng/ml, compound I at all concentrations tested",dose-dependently inhibited
same,IC50,"NFκB; Homo sapiens, HEK293, 1 h pretreatment, TPA 10 ng/ml 18 hrs, read-out: IC50 against TPA-induced NFκB reporter",~4 µM
same,Inhibition of NFκB induced by TNFα,NFκB; TNFα induction,dose-dependent inhibition
same,TPA-induced NFκB luciferase activity,NFκB; compound at 17.0 μM,completely blocked to the non-induced level
same,Transcriptional activation of NFκB dependent genes,NFκB; concentrations as low as 1.1 μM,repressed
same,Basal NFκB luciferase activity,NFκB; without TPA induction,"inhibited, but to a lesser extent"
same,Part of TPA induction of IL-6 mRNA prevented,IL-6 mRNA,more than half
same,Toxicity estimated by XTT assay,[1],non-toxic
